Legend:
Arabidopsis thaliana [1] = experiment: Growth of Arabidopsis thaliana plants watered with synthetic miPEP; assay type: in vivo; settings: A. thaliana; watered with 0.1 μM synthetic peptide, 3 weeks of growth, vs water
Experimental: The photographs show two plants (top views and side views) after 3 weeks of growth: a control plant watered with water (A), and a plant watered with a composition of 0.1 μM of synthetic peptide corresponding to AtmiPEP164a (B).
The photographs show two plants (top views and side views) after 3 weeks of growth: a control plant watered with water (A), and a plant watered with a composition of 0.1 μM of synthetic peptide corresponding to AtmiPEP319a1 (B).

AtmiR319a = experiment: Overexpression of AtmiPEP319a1 in A. thaliana, qRT-PCR of AtmiR319a; assay type: in vivo, Arabidopsis thaliana; settings: overexpression of AtmiPEP319a1 vs control plant
HsmiR155 = experiment: HeLa cells transfected to overexpress HsmiPEP155, relative expression of Pre-miR155; assay type: cell-based, Homo sapiens; settings: HeLa cells overexpressing HsmiPEP155
Source text: The DNA fragments of interest (HsmiPEP155 and the mutated miPEP) were synthesized or amplified by PCR using specific primers, and then cloned using the enzymes XhoI and NotI into a pUAS plasmid permitting their overexpression by means of the GAL4 transcription factor, the expression of which is controlled by a constitutive strong promoter.
The different constructs were produced either by PCR amplification on genomic DNA of HeLa cells, or by RT-PCR on total RNAs of L428 human cells. The amplified PCR fragments are digested with the HindIII/EcoRI restriction enzymes and then cloned into the vector pcDNA3.1. The DH5a strain of Escherichia coli is electroporated and then cultured on a solid medium (2YT+agar+ampicillin). The plasmid DNA from different clones is then prepared and sequenced for verification. The constructs are then prepared using the QIAfilter Plasmid Midi kit (QIAGEN) and stored at −20° C.
The HeLa cells (established tumour line, ATCC CCL-2.2) are cultured in a 6-well plate in complete medium [(DMEM (1×)+Glutamax+4.5 g/L glucose without pyruvate+1× penicillin/streptomycin+1 mM Na-pyruvate+10% calf serum] and placed in an incubator at 37° C. and 5% CO2.
The cells are transfected when they are at 50% confluence. […]
10-15 μg of total RNAs is then analysed by Northern blot on 15% acrylamide gel [solution of acrylamide/40% bis-acrylamide, ratio 19:1], 7M urea in TBE 1×. […]

AtmiR165a [2] = experiment: Expression of AtmiPEP165a (AtmiORF165a) in tobacco expressing AtmiR165a; assay type: in vivo, Nicotiana benthamiana; settings: overexpression of AtmiORF165a
Experimental: At present, AtmiPEP165a and AtmiPEP319a2, identified in Arabidopsis thaliana, have already been characterized.
The total RNA was extracted from roots of M. truncatula or from tobacco leaves using the extraction kit RNeasy Plant Mini Kit (Qiagen). The reverse transcription was performed using the reverse transcriptase SuperScript II (Invitrogen) starting from 500 ng of total RNA. Three repetitions (n=3) were carried out, each with two technical repetitions. Each experiment was repeated from two to three times. The amplifications by qPCR were carried out using a LightCycler 480 System thermocycler (Roche Diagnostics) by the method described in Lauressergues et al. (Plant J., 72(3): 512-22, 2012).
For the miPEPs 165a and 319a, the corresponding miORFs were cloned into pBIN19 by the method described in Combier et al. (Genes & Dev, 22: 1549-1559, 2008).
The composite plants having roots transformed with Agrobacterium rhizogenes were obtained by the method described in Boisson-Dernier et al. (Mol Plant-Microbe Interact, 18: 1269-1276, 2005). The transformed roots were verified and selected by observations of DsRED with a binocular fluorescence magnifier. The control roots correspond to roots transformed with A. rhizogenes not containing the pPEX-DsRED vector. Transformation of the tobacco leaves was carried out by the method described in Combier et al. (Genes & Dev, 22: 1549-1559, 2008).

Arabidopsis thaliana [3] = experiment: Root growth of Arabidopsis thaliana treated with AtmiPEP165a; assay type: in vivo; settings: Arabidopsis thaliana treated with AtmiPEP165a vs control plant of the same age
AtmiR165a [4] = experiment: Relative expression of AtmiR165a and its target genes in A. thaliana roots treated with AtmiPEP165a; assay type: in vivo, Arabidopsis thaliana; settings: AtmiPEP165a 0.01, 0.1, 1 or 10 μM vs water
AtmiR165a [5] = experiment: Northern blot of miR165a in A. thaliana roots treated with synthetic AtmiPEP165a; assay type: in vivo, Arabidopsis thaliana; settings: 0.1 μM synthetic miPEP165a in water vs water

## MNIHTYHHLLFPSLVFHQSSDVPNALSLHIHTYEYIIVVIDPFRITLAFR (listed as Arabidopsis thaliana) [AtmiPEP319a1]
Arabidopsis thaliana [1]
  plant growth: increases plant growth significantly
AtmiR319a
  accumulation of AtmiR319a: increase

## MEMALMVAQTRKGKSVV (listed as Homo sapiens) [HsmiPEP155]
HsmiR155
  expression of HsmiR155 (relative expression of Pre-miR155): increases

## MRVKLFQLRGMLSGSRIL (listed as Arabidopsis thaliana) [AtmiPEP165a]
AtmiR165a [2]
  accumulation of AtmiR165a: increase
Arabidopsis thaliana [3]
  root growth phenotype: greatly accelerated root growth
AtmiR165a [4]
  accumulation of AtmiR165a: dose-dependent effect
  regulation of the target genes of miR165a (PHV, PHB and REV): negative regulation
AtmiR165a [5]
  accumulation of miR165a (Northern blot): increase

— patent publication US12024543B2, “Micropeptides and use of same for modulating gene expression” (UNIVERSITE PAUL SABATIER TOULOUSE III, priority 2013, dated 2024)
